Laboratory results reported in PubChem BioAssay AID179 (DTP/NCI, 2004).
Activity calls are given as the source filed them.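 Rule for the calls: active = compounds giving half or more protection of infected cells from virus-caused growth loss, again on retest; inactive = the rest.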

Test system: CEM cells HIV-1 protection, formazan growth assay
Assay: NCI AIDS Antiviral Assay
Conditions: for IC50: measured here: growth of uninfected CEM cells
Summary of the method: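 Human CEM cells, uninfected and HIV-1-infected, exposed to five drug concentrations; growth measured by soluble formazan assay and scored as percent protection from infection, with protecting compounds retested.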

Work on `CC(=O)N/N=C/c1ccc(N(C)C)cc1` yielded an EC50 greater than 200 µM and an IC50 greater than 200 µM.
`CCSC(CCC(NC(C)=O)(C(=O)O)C(=O)O)SCC` showed an EC50 greater than 200 µM and an IC50 greater than 200 µM.
`C=CCCCCOC1C=CC(OC(C)=O)C(COC(C)=O)O1` (configuration not stated) was tested, and the EC50 was greater than 200 µM and the IC50 was greater than 200 µM.
`CC1COS(=O)(=O)CS(=O)(=O)O1` (configuration not stated) gave an EC50 greater than 1150 µM and an IC50 greater than 1150 µM.
In the case of `CO[C@H]1SC[C@H](OC(C)=O)[C@H](OC(C)=O)[C@H]1OC(C)=O`, the EC50 is reported as greater than 200 µM and the IC50 is reported as greater than 200 µM.
With `N/N=C(\c1nc2ccc(Cl)cc2[nH]c1=O)C(O)c1ccc(Cl)c(Cl)c1` (configuration not stated) the EC50 was greater than 245 µM and the IC50 was 20.4 µM.
`O=S(=O)(/C=C/CS(=O)(=O)c1ccccc1)c1ccccc1` was tested, and the outcome was “inactive”.
For `CN(C)C(=S)/N=c1\ss/c(=N\S(=O)(=O)c2ccccc2)n1N(C)C`, the outcome was “inactive”.
For `CC(C)C(C(=O)O)n1[se]c2ccccc2c1=O` (configuration not stated), the EC50 was 15.5 µM and the IC50 was 120 µM.
`Cc1ccc([N+](=O)[O-])c2c(NCC(O)CO)ccnc12` (configuration not stated) gave an EC50 greater than 33.9 µM and an IC50 of 26.3 µM.
Compound `N#Cc1cc2c(N)ncnc2nc1N1CCCC1` has an EC50 greater than 200 µM and an IC50 of 191 µM.
`COc1ccc2c(c1OC)OC1CNc3cc(C)c(C)cc3N=C1C2` (configuration not stated) gave an EC50 of 1.35 µM and an IC50 of 4.57 µM.
In the case of `Cn1nc(C(N)=O)c(=O)[nH]c1=O`, the EC50 is reported as greater than 200 µM and the IC50 is reported as greater than 200 µM.
`N#C/C(=C\c1ccc([N+](=O)[O-])cc1)C(=O)c1ccccc1` showed an EC50 greater than 45.7 µM and an IC50 of 24.5 µM.
`O=c1cnn(C2OC(CO)C(F)C2F)c(=O)[nH]1` (configuration not stated) was tested, and the EC50 was greater than 363 µM and the IC50 was greater than 363 µM.
Work on `CN1C(c2ccccc2)=CC(=O)C(O)=C(c2ccccc2)S1(=O)=O` yielded an EC50 greater than 200 µM and an IC50 greater than 200 µM.
Compound `N/N=C(\c1ccccc1)c1cccs1` has an EC50 greater than 200 µM and an IC50 greater than 200 µM.
For `CCSc1nc2sc(C)c(C)c2c(=O)n1-c1ccc(C(=O)O)cc1`, the EC50 was greater than 200 µM and the IC50 was greater than 200 µM.
In the case of `Cc1ccc(NC(=O)CSc2nc(C)nc3c2sc(=S)n3-c2ccccc2)cc1`, the EC50 is reported as greater than 200 µM and the IC50 is reported as 138 µM.
For `CC(=O)Oc1c(C(C)C)cc2c(c1OC(C)=O)C[C@@]1(C)OC(=O)CC(C)(C)C1(OC(C)=O)C=C2` (some centres not stated), the outcome was “inactive”.
For `NC(=S)NN/C=C(\C=Nc1ccccc1)[N+](=O)[O-]`, the EC50 was greater than 355 µM and the IC50 was 178 µM.
`CC1=C(C(=O)Nc2ccccc2C)C(/C=C/c2ccccc2)C(C(=O)Nc2ccccc2C)=C(C)N1` was tested, and the outcome was “inactive”.
In the case of `O=C(CCCl)NNC1=NCCN1`, the EC50 is reported as greater than 200 µM and the IC50 is reported as greater than 200 µM.
In the case of `Cc1cc(Br)cc(C)c1NC(=O)C(=O)Nn1c(=S)[nH]c2ccccc2c1=O`, the EC50 is reported as greater than 209 µM and the IC50 is reported as greater than 209 µM.
`NCCCCN(CCCN)C(=O)OCc1ccccc1` showed an EC50 greater than 200 µM and an IC50 greater than 200 µM.
For `O=C(/C=C/c1ccc(O)c(O)c1)Oc1ccccc1`, the EC50 was greater than 200 µM and the IC50 was 9.33 µM.
`CCOP(=O)(OCC)/C(=C/c1ccccc1)CC(C)=O` gave an EC50 greater than 200 µM and an IC50 of 148 µM.
`CC1(C)CC2(CC(C)(C)c3cc(O)c(O)cc32)c2cc(O)c(O)cc21` showed an EC50 greater than 275 µM and an IC50 of 14.1 µM.
For `Cc1cc(C)nc(NS(=O)(=O)c2ccc(NC(=O)c3ccc(Cl)c4c(Nc5ccc(S(=O)(=O)Nc6cc(C)on6)cc5)c5ccccc5nc34)cc2)n1`, the EC50 was greater than 46.8 µM and the IC50 was greater than 46.8 µM.
`Cc1nc2n(C)c3ncn(Cc4ccccc4)c3c(=O)n2c1/C=C/C(C)C` was tested, and the EC50 was greater than 33.1 µM and the IC50 was greater than 33.1 µM.
With `C=CCN1C(=O)C(c2ccccc2)(c2ccccc2)NC1=S` the EC50 was greater than 85.1 µM and the IC50 was greater than 85.1 µM.
Compound `CC(=O)OC[C@]1(O)CC[C@@]23CC1C[C@@H]2CCC1C(C)(C)CCC[C@@]13C` (some centres not stated) has an EC50 greater than 20.9 µM and an IC50 greater than 20.9 µM.
In the case of `CC(=O)C1CC=C(C)CC1` (configuration not stated), the EC50 is reported as greater than 1820 µM and the IC50 is reported as 141 µM.
In the case of `CC(=O)c1cccc(NC(=O)C(=O)Nn2c(N)nnc2N)c1`, the EC50 is reported as greater than 158 µM and the IC50 is reported as greater than 158 µM.
For `O=S1OCC2(CO1)COS(=O)OC2` (configuration not stated), the EC50 was greater than 200 µM and the IC50 was 91.2 µM.
Compound `Fc1ccc(CN2COc3c(cc(Cl)c4cccnc34)C2)cc1` has an EC50 greater than 200 µM and an IC50 of 0.977 µM.
With `O=C1NCCN1C(=O)Nc1ccc(S(=O)(=O)c2ccc([N+](=O)[O-])cc2)cc1` the EC50 was greater than 200 µM and the IC50 was 74.1 µM.
`CCN(c1ccc(Br)cc1)c1c(Br)c(=O)nc2ccccn12` was tested, and the EC50 was greater than 525 µM and the IC50 was 97.7 µM.
With `COc1ccc2oc(OC)c(CC=C(C)C)c(=O)c2c1C` the EC50 was greater than 200 µM and the IC50 was 141 µM.
For `O=C1OCN(c2ccccc2)C12CCN(Cc1ccccc1)CC2`, the EC50 was greater than 200 µM and the IC50 was 28.8 µM.
In the case of `Cc1ccccc1NC(=O)C(=O)CC(=O)c1ccc([N+](=O)[O-])cc1`, the EC50 is reported as greater than 8.32 µM and the IC50 is reported as greater than 8.32 µM.
With `CN(C)C=Nc1ccn(CCO)c(=O)n1` the EC50 was greater than 1200 µM and the IC50 was greater than 1200 µM.
Compound `CN(C)c1ccc(C2=NC(=S)NC(c3cc(Cl)ccc3O)C2)cc1` (configuration not stated) has an EC50 greater than 200 µM and an IC50 of 30.2 µM.
In the case of `COC(=O)Nc1cn2ccsc2n1`, the outcome is reported as “inactive”.
In the case of `O=C(OCCc1ccccc1)c1cc2ccc(O)c(O)c2cn1`, the EC50 is reported as greater than 8.32 µM and the IC50 is reported as greater than 8.32 µM.
In the case of `CCN1C(c2ccccc2)=CC(c2ccccc2)(C(Cl)(Cl)Cl)C=C1c1ccccc1`, the EC50 is reported as greater than 200 µM and the IC50 is reported as 1.78 µM.
